4 compounds from article PMC10761696, “Avapritinib-based SAR studies unveil a binding pocket in KIT and PDGFRA” (Nature Communications, 2024) can be followed below.

By Papp A→B is commonly meant the apparent permeability from the apical to the basolateral side of a cell layer. Low readings indicate slow passage, high ones fast passage. A word on the IC50: it is the midpoint of a concentration-inhibition curve. A word on the EC50: it is the concentration at which the effect is half-maximal.

Values joined by “and” are separate entries in the source; they are usually repeats but may differ in a detail not shown here. Equal entries are not always repeated. Where two headings read alike, the source gives them in different places.

The nature of data set [1]: MDCKII-MDR1 permeability assay. Particulars: dog, MDCK-MDR1, Papp A->B, MDCKII-MDR1; assay conc. 10; apical to basolateral.
In the next data set the test system is MDR1. In words: MDCKII-MDR1 permeability assay. Particulars: dog, MDCKII-MDR1, assay conc. 10.
Another data set has as its target T1, PDGFRA-D842V (Homo sapiens, UniProt P16234, D842V).
T1 construct: purchased Invitrogen PV4203 (lot #2343231B)
Nature of the data set: Activity-based HTRF KinEASE assay, PDGFRA-D842V. In kind it is biochemical.

The target in another data set is KIT-D816H (Homo sapiens, UniProt P10721, D816H). Nature of the data set: Activity-based HTRF KinEASE assay, KIT-D816H. In kind it is biochemical. A general note: In TR-FRET formats the signal depends on donor and acceptor labels being close together.
The subject of the next data set is ZR-75-1. In words: CellTiter-Glo (CTG) EC50, ZR-75-1 breast cancer control cell line. Type of data set: cell-based, human. The protocol:
(§1) Cell line authenticity was confirmed by STR analysis at Eurofins Genomics. All cell lines were tested regularly for mycoplasma contamination using the Mycoplasmacheck Service at Eurofins Genomics. […] Following incubation for 24 h in a humidified atmosphere at 37 °C and 5% CO2, cells were treated with inhibitors in serial dilutions ranging from 30 µM down to 0.1 nM using an Echo650 acoustic liquid handler (Beckman Coulter). Cell viability was analyzed on day 5 using the CellTiter-Glo® assay (Promega) using 500 ms integration time. The obtained data were normalized to the plate positive control (30 µM staurosporine) and negative control (DMSO) and subsequently analyzed and fitted with the Quattro Software Suite (Quattro Research) using a four-parameter logistic model. As quality control, the Z’-factor was calculated from 16 positive and negative control values. Only assay results showing a Z’-factor ≥0.5 were used for further analysis. All experimental points were measured in duplicates for each plate and were independently replicated in at least three plates.
For orientation: In ATP-based viability assays light output follows the ATP content of the culture.

Another data set has as its system MDA-MB-175VII. In words: CellTiter-Glo (CTG) EC50, MDA-MB-175VII breast cancer control cell line. Type of data set: cell-based, human. The method, then:
as §1

A further data set concerns GIST-T1. In words: CellTiter-Glo (CTG) GR50, GIST-T1. The following applies: Homo sapiens.
A further data set relates to T1-T670I. Nature of the data set: CellTiter-Glo (CTG) GR50, T1-T670I. Particulars: Homo sapiens.
The test system of a further data set is T1-V654A. Nature of the data set: CellTiter-Glo (CTG) GR50, T1-V654A. The following applies: Homo sapiens.
The test system of a further data set is T1-a-5258. Nature of the data set: CellTiter-Glo (CTG) GR50, T1-a-5258. The following applies: Homo sapiens.
The subject of a further data set is SK-LMS-1. In words: CellTiter-Glo (CTG) GR50, SK-LMS-1 control cell line. Particulars: for CTG GR50 SK-LMS-1, single determinations: raw data of Supp. Tab. 2, independent experiments, unit from Supp. Tab. 2.
A further data set relates to GIST-48B. Nature of the data set: CellTiter-Glo (CTG) GR50, GIST-48B control cell line (off-target toxicity). Particulars: ratio of GR50 values; for GIST-48B/D842V: source data sheet.
[2] abbreviates: mean ± s.d., n ≥ 3, ATP at KM (14 µM), read-out: HTRF IC50 PDGFRA-D842V.
The mark [3] stands for this setting: raw data of Table 1, independent experiments 1-3, unit from Table 1, read-out: HTRF IC50 PDGFRA-D842V, single determinations.
The mark [4] stands for this setting: mean ± s.d., n ≥ 3, ATP at KM (12 µM), read-out: HTRF IC50 KIT-D816H.
Setting [5] is: raw data of Table 1, independent experiments, unit from Table 1, read-out: HTRF IC50 KIT-D816H, single determinations.
[6] abbreviates: Homo sapiens, ZR-75-1, mean ± s.d., n = 3, control cell line, read-out: CTG EC50 ZR-75-1.
Setting [7] is: Homo sapiens, ZR-75-1, raw data of Supp. Tab. 2, independent experiments, unit from Supp. Tab. 2, read-out: CTG EC50 ZR-75-1, single determinations.
Where [8] appears, read: Homo sapiens, MDA-MB-175-VII, read-out: CTG EC50 MDA-MB-175VII, mean ± s.d., n = 3, control cell line.
The mark [9] stands for this setting: Homo sapiens, MDA-MB-175-VII, read-out: CTG EC50 MDA-MB-175VII, single determinations, raw data of Supp. Tab. 2, independent experiments, unit from Supp. Tab. 2.
Setting [10] is: GISTT1, read-out: KIT CTG GR50 GIST-T1, mean ± s.d., n ≥ 3, GR50 half-maximal growth inhibition rate.
Where [11] appears, read: read-out: CTG GR50 T1-T670I, single determinations, raw data of Supp. Tab. 1, independent experiments, unit from Supp. Tab. 1.
Setting [12] is: read-out: KIT CTG GR50 T1-T670I, mean ± s.d., n ≥ 3.
[13] abbreviates: read-out: CTG GR50 T1-V654A, single determinations, raw data of Supp. Tab. 1, independent experiments, unit from Supp. Tab. 1.
Where [14] appears, read: read-out: KIT CTG GR50 T1-V654A, mean ± s.d., n ≥ 3 (* n = 2 for ava).
The mark [15] stands for this setting: read-out: CTG GR50 T1-a-5258, single determinations, raw data of Supp. Tab. 1, independent experiments, unit from Supp. Tab. 1.
The mark [16] stands for this setting: read-out: PDGFRA CTG GR50 T1-a-5258, mean ± s.d., n ≥ 3, triple mutant D842V, G652E, V658A.
Where [17] appears, read: GISTT1, read-out: CTG GR50 GIST-T1, single determinations, raw data of Table 1, independent experiments, unit from Table 1.

Chain of KIT-D816H (P10721 26-976 D816H): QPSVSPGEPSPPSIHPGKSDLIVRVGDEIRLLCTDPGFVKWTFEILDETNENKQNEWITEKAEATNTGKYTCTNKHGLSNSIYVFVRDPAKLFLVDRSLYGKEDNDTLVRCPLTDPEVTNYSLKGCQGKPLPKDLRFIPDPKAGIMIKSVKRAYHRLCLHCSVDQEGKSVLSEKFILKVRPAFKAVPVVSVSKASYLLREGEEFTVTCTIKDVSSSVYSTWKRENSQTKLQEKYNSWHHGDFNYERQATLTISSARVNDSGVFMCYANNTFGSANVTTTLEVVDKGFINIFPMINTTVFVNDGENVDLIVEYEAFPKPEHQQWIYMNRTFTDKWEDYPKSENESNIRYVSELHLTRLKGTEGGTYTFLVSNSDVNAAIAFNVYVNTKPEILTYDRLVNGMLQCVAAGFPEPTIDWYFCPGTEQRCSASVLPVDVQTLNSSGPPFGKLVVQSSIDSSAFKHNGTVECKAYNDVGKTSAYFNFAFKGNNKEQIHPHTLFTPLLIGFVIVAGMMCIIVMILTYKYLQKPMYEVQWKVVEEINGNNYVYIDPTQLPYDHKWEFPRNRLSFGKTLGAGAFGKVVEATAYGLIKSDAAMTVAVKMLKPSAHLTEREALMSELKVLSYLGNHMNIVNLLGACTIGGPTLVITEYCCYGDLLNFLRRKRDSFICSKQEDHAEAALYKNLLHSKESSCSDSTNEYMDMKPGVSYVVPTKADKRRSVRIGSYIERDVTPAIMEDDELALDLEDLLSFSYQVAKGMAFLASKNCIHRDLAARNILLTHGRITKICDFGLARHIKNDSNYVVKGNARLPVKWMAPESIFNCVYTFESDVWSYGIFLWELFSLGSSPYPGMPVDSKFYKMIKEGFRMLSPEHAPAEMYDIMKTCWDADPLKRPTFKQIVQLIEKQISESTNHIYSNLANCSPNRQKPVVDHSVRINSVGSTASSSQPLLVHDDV
T1 sequence (P16234 24-1089 D842V): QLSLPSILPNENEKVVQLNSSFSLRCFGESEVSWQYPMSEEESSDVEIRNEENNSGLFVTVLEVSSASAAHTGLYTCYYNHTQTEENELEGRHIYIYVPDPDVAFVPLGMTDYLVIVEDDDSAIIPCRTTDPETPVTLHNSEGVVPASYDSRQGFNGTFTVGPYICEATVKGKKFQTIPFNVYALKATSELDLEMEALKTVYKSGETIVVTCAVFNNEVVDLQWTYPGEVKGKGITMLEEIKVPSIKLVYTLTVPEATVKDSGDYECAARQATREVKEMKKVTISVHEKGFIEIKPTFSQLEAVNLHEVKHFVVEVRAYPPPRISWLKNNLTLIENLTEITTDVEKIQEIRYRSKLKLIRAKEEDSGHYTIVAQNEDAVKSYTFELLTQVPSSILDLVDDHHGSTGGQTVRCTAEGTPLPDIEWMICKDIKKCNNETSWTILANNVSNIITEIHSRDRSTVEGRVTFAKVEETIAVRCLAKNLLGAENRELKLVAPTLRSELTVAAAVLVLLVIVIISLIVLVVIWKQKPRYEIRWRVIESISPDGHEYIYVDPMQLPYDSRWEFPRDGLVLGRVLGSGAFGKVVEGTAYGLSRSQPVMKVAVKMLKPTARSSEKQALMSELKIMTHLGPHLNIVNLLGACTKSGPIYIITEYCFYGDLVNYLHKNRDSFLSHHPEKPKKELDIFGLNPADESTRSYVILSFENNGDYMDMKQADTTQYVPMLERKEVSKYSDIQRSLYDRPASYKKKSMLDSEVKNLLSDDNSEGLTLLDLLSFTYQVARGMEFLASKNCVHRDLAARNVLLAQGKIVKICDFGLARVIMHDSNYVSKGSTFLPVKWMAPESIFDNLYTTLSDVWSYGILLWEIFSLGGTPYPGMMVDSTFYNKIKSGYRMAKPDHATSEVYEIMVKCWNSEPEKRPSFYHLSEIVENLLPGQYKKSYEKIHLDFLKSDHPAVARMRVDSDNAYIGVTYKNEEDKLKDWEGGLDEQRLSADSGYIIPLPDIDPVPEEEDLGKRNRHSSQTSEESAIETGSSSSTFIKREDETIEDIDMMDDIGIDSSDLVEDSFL

On to `Cn1cc(-c2cc3c(N4CCN(c5ncc(C(C)(N)c6ccc(F)cc6)cn5)CC4)ncnn3c2)cn1` (centres unmarked) [1 (avapritinib)], for which the Papp A→B at 2 h, 10 µM in data set [1] is 12.5 ×10⁻⁶ cm/s. Further, the recovery at 2 h, 10 µM with MDR1 (MDCK-MDR1, Recovery A->B) came out at 87.6%; in the data set on MDR1 (MDCK-MDR1, Recovery B->A), 150%.

On to `Cn1cc(-c2cc3c(Cl)ncnn3c2)cn1` [Compound 2, 4-chloro-6-(1-methyl-1H-pyrazol-4-yl)pyrrolo[2,1-f][1,2,4]triazine], for which the IC50 at PDGFRA-D842V (setting [2]) is 7.34 µM; on PDGFRA-D842V (setting [3]) it was 4.47 µM and 9.3 µM and 8.26 µM; on KIT-D816H (setting [4]), 9.3 ± 1.21 µM; at KIT-D816H (setting [5]), 7.91 µM and 10 µM (2×). Moreover, the EC50 in the data set on ZR-75-1 (setting [6]) is 6.48 µM; in the data set with ZR-75-1 (setting [7]), 7.51 µM; in the data set on ZR-75-1 (raw data of Supp. Tab. 2, independent experiments, unit from Supp. Tab. 2, read-out: CTG EC50 ZR-75-1, single determinations) it was 7.14 µM and 4.8 µM; in the data set with MDA-MB-175VII (setting [8]), 9.19 µM; with MDA-MB-175VII (setting [9]), 10 µM; in the data set with MDA-MB-175VII (read-out: CTG EC50 MDA-MB-175VII, single determinations, raw data of Supp. Tab. 2, independent experiments, unit from Supp. Tab. 2), 7.57 µM. Also, the GI50 in the data set on GIST-T1 (setting [10]) was 6.73 ± 2.07 µM; in the data set with T1-T670I (setting [11]), 3.55 µM; in the data set with T1-T670I (setting [12]), 2.87 ± 0.51 µM; in the data set with T1-V654A (setting [13]) it was 6.09 µM; in the data set on T1-V654A (setting [14]) it was 7.56 ± 0.991 µM; in the data set on T1-a-5258 (setting [15]), 1.38 µM. The GI50 in the data set on T1-a-5258 (setting [16]) was determined as 1.34 ± 0.07 µM. Moreover, the “CTG GR50 SK-LMS-1” value in the data set on SK-LMS-1 (mean ± s.d., n = 3, control cell line) was 7.713 ± 3.929 µM and 7.713 µM. Further, the “ratio GIST-48B/ T1-a-D842V” value with GIST-48B is 3. In addition, the GIST-48B/D842V with GIST-48B worked out at 3.

As for `Cn1cc(-c2cc3c(N4CCNCC4)ncnn3c2)cn1` [Compound 3], the IC50 on PDGFRA-D842V (setting [2]) is 5.59 ± 2.56 µM; on PDGFRA-D842V (setting [3]), 2.5 µM and 8.76 µM and 5.5 µM; at KIT-D816H (setting [4]), 1.54 ± 0.852 µM; on KIT-D816H (setting [5]), 1.4 µM and 0.766 µM and 2.45 µM. Also, the EC50 with ZR-75-1 (setting [6]), in the data set on ZR-75-1 (setting [7]), with MDA-MB-175VII (setting [8]) and in the data set on MDA-MB-175VII (setting [9]) was not below 10 µM each time. In addition, the GI50 in the data set on GIST-T1 (setting [17]) and with GIST-T1 (setting [10]) was not below 10 µM each time. Besides, the “CTG GR50 SK-LMS-1, single determinations” value in the data set on SK-LMS-1 is not below 10 µM. Further, the “ratio GIST-48B/ T1-a-D842V” value in the data set with GIST-48B amounted to 1. For the same compound, in the data set on GIST-48B, the GIST-48B/D842V is listed as 1.

Regarding `Cn1cc(-c2cc3c(N4CCN(c5ncccn5)CC4)ncnn3c2)cn1` [Compound 4], the “fold increase in potency with respect to PDGFRA-D842V” value at PDGFRA-D842V (4 (pyrimidine added) compared with 3) is on record as 160 fold. In addition, the IC50 was 0.035 ± 0.013 µM on PDGFRA-D842V (setting [2]); 0.0496 µM and 0.0362 µM and 0.0185 µM at PDGFRA-D842V (setting [3]); 0.076 ± 0.045 µM on KIT-D816H (setting [4]); 0.0275 µM and 0.0821 µM and 0.118 µM at KIT-D816H (setting [5]). Also, the EC50 with ZR-75-1 (setting [6]), in the data set on ZR-75-1 (setting [7]), with MDA-MB-175VII (setting [8]) and in the data set on MDA-MB-175VII (setting [9]) was not below 10 µM in each case. The GI50 in the data set on GIST-T1 (setting [17]) was 5.8 µM; in the data set with GIST-T1 (setting [10]) it was 5.27 ± 0.509 µM; in the data set on T1-T670I (setting [11]), not below 10 µM; in the data set on T1-T670I (setting [12]), not below 10 µM; with T1-V654A (setting [13]), not below 10 µM; with T1-V654A (setting [14]), not below 10 µM. The GI50 in the data set with T1-a-5258 (setting [15]) and with T1-a-5258 (setting [16]) was not below 10 µM throughout. Further, the “CTG GR50 SK-LMS-1, single determinations” value with SK-LMS-1 is not below 10 µM. Further, the “ratio GIST-48B/ T1-a-D842V” value in the data set with GIST-48B is reported as 5. The GIST-48B/D842V in the data set with GIST-48B came to 5.3.
